The text below walks through data of ChEMBL document CHEMBL5725356, “Anti-fibrotic pyridinones” (2017).

The assay in a line: ET-1 Assay: Fibroblasts (primary human lung and dermal, HFL-1, 3T3 etc) are seeded in 96-well plates at ~15000 cells/well and serum starved for 0-48 hours. After media exchange, compounds serially diluted in DMSO are added to the cells. After a brief incubation of ~30 min, stimulants (TGFb, serum, LPA etc) are added followed by further incubation for 16-48 hours. Media is then harvested and stored frozen in plate format for later endothelin-1 (ET-1) determination by ELISA. Toxicity measurements are made using the ATPlite kit (Perkin-Elmer). ET-1 is quantified using an ELISA kit (R&D Systems). The amount of ET-1 produced in the assay wells are back-calculated using the ELISA standard. The ability of a compound to inhibit ET-1 production is typically analyzed by fitting dose-response curves to a 4-parameter logistic function to obtain an EC50 value. To be noted: HFL1.
Regarding `CCCCOC(=O)n1cc(-c2ccc(=O)n(-c3ccccc3)c2)cn1`, the EC50 result is “in the range around 125 µM”.
In the case of `Cc1cn(-c2ccccc2)c(=O)c2c1CCCC2`, the EC50 result was “in the range around 125 µM”.
The figure for `Cn1cc(-c2cn(-c3ccc(OC(F)(F)F)cc3)c(=O)c3c2OCC(=O)N3Cc2ccccc2)cn1` is over 200 µM; for `CCOc1ccc(-n2cc(-c3ccc(F)cc3)c3nccnc3c2=O)c(C)c1` it is over 200 µM.
The entry for `O=c1ccc(C2CCCC2)cn1-c1ccccc1` is “in the range around 125 µM”; for `CC(=O)c1ccc(=O)n(-c2ccccc2Cl)c1` it is “in the range around 125 µM”.
The figure for `O=C1COc2c(-c3ccc(F)cc3)cn(-c3ccc(OC(F)(F)F)cc3)c(=O)c2N1` is over 200 µM.
As to `COCCOc1ccc(-n2cc(-c3ccc(F)cc3)c(C)cc2=O)cc1`, the EC50 result was “in the range around 125 µM”.
The entry for `Cc1ccc(=O)n(CCc2ccccc2)c1` is “in the range around 125 µM”.
The figure for `O=c1c2c(c(-c3cccc(F)c3)cn1-c1ccc(OC(F)(F)F)cc1)CCCC2` is under 50 µM.
Consider `CCn1ccc2c(-c3cnn(C)c3)cn(-c3ccc(OC(F)(F)F)cc3)c(=O)c21`, for which the EC50 is under 50 µM.
Then `O=C1COc2c(-c3ccc(F)cc3)cn(-c3ccc(OC(F)(F)F)cc3)c(=O)c2N1Cc1ccccc1`, with over 200 µM.
The entry for `O=c1cc(O)c(-c2ccc(F)cc2)cn1-c1ccc(OC(F)(F)F)cc1` is “in the range around 125 µM”; for `CC(=O)Nc1cccc(-n2cc(C(C)=O)ccc2=O)c1` it is over 200 µM; for `COc1cc(=O)n(-c2ccc(OC(F)(F)F)cc2)cc1-c1ccc(F)cc1` it is over 200 µM.
In the case of `O=C(c1ccccc1)n1cc(-c2ccc(=O)n(-c3ccccc3)c2)cn1`, the EC50 is over 200 µM.
Turning to `Cn1cc(-c2cn(-c3ccc(OC(F)(F)F)cc3)c(=O)c3nc[nH]c23)cn1`, the EC50 is over 200 µM.
The figure for `COCCOc1ccc(-n2cc(-c3ccccc3)c(C)cc2=O)cc1` is under 50 µM; for `O=c1c2nsnc2c(-c2ccc(F)cc2)cn1-c1ccc(OC(F)(F)F)cc1` it is over 200 µM.
Then `CC(=O)c1ccc(=O)n(-c2ccc(F)cc2)c1`, with over 200 µM; and `O=c1ccc(C2CCCCC2)cn1-c1ccccc1`, with “in the range around 125 µM”; and `Cn1cc(-c2cn(-c3ccc(OC(F)(F)F)cc3)c(=O)c3ccc(C(F)(F)F)nc23)cn1`, with under 50 µM.
Then `CS(=O)(=O)n1cc(-c2ccc(=O)n(-c3ccccc3)c2)cn1`, with over 200 µM; and `CCOc1ccc(-n2cc(-c3cnn(C)c3)c3nccnc3c2=O)c(C)c1`, with under 50 µM.
Take `CCOc1ccc(-n2cc(-c3cnn(C)c3)c3c(c2=O)CCCC3)c(C)c1`: the EC50 is under 50 µM.
The figure for `Cn1cc(-c2cn(-c3ccc(OC(F)(F)F)cc3)c(=O)c3c2CCCC3)cn1` is under 50 µM; for `O=c1ccc(C2CCC2)cn1-c1ccccc1` it is over 200 µM.
In the case of `CCOc1ccc(-n2cc(Br)c3nccnc3c2=O)c(C)c1`, the EC50 was under 50 µM.
Then `Cn1cnc2c(-c3ccc(F)cc3)cn(-c3ccc(OC(F)(F)F)cc3)c(=O)c21`, with under 50 µM; and `O=C1Cc2ccccc2N1c1ccc(OC(F)(F)F)cc1`, with “in the range around 125 µM”; and `O=c1ccc2c(n1-c1ccccc1)CCC2`, with over 200 µM.
The figure for `CC(=O)c1ccc(=O)n(-c2cccc(C(F)(F)F)c2)c1` is over 200 µM; for `Cc1cn(C)c2c(=O)n(-c3ccc(OC(F)(F)F)cc3)cc(-c3ccc(F)cc3)c12` it is under 50 µM.
Then `CC(=O)c1ccc(=O)n(-c2ccc(OC(C)C)cc2)c1`, with over 200 µM; and `COCCOc1ccc(-n2cc(-c3cn[nH]c3)c(C)cc2=O)cc1`, with over 200 µM.
Regarding `Nc1cc(=O)n(-c2ccc(OC(F)(F)F)cc2)cc1-c1ccc(F)cc1`, the concentration giving a half-maximal response (EC50) entry was “in the range around 125 µM”.
Then `CCOc1ccc(-n2cc(C(C)=O)ccc2=O)c(C)c1`, with over 200 µM; and `COCCOCCOCCOc1ccc(-n2cc(C)ccc2=O)cc1`, with over 200 µM.
Then `O=c1c2c(c(-c3cn[nH]c3)cn1-c1ccc(OC(F)(F)F)cc1)CCCC2`, with “in the range around 125 µM”; and `Cn1cc(-c2cn(-c3ccc(OC(F)(F)F)cc3)c(=O)c3c2NCCC3)cn1`, with over 200 µM; and `O=c1cc(Cl)c(-c2ccc(F)cc2)cn1-c1ccc(OC(F)(F)F)cc1`, with under 50 µM.
Then `Cc1ccc(=O)n(Cc2ccccc2)c1`, with over 200 µM; and `O=c1c2c(c(-c3ccc(F)cc3)cn1-c1ccc(OC(F)(F)F)cc1)NCCC2`, with over 200 µM.
With `CCOC(=O)n1cc(-c2ccc(=O)n(-c3ccccc3)c2)cn1`, the 50% effective concentration (EC50) is under 50 µM.
The figure for `COc1cccc(-n2cc(C(C)=O)ccc2=O)c1` is over 200 µM.
Take `O=c1c2ncn(Cc3ccccc3)c2c(-c2ccc(F)cc2)cn1-c1ccc(OC(F)(F)F)cc1`: the EC50 was over 200 µM.
Then `O=c1ccc2c(n1-c1ccc(OC(F)(F)F)cc1)CCC2`, with “in the range around 125 µM”.
Then `CC(=O)c1ccc(=O)n(-c2cccc(F)c2)c1`, with over 200 µM; and `O=c1c2nccnc2c(-c2ccc(F)cc2)cn1-c1ccc(OC(F)(F)F)cc1`, with under 50 µM; and `Cn1cc(-c2cn(-c3ccc(OC(F)(F)F)cc3)c(=O)c3ncn(Cc4ccccc4)c23)cn1`, with over 200 µM.
The figure for `Cn1cc(-c2cn(-c3ccccc3)c(=O)c3c2CCCC3)cn1` is under 50 µM.
Take `Cc1ccc2c(c1)CC(=O)N2c1ccc(OC(F)(F)F)cc1`: the EC50 was over 200 µM.
On to `O=c1c2ccc(C(F)(F)F)nc2c(-c2ccc(F)cc2)cn1-c1ccc(OC(F)(F)F)cc1`, for which the EC50 is over 200 µM.
In the case of `C[C@H]1CCC(=O)N(c2ccccc2)C1`, the EC50 was over 200 µM.
Turning to `COCCOc1ccc(-n2cc(-c3cnn(C)c3)c(C)cc2=O)cc1`, the EC50 was over 200 µM.
The figure for `CC(=O)n1cc(-c2ccc(=O)n(-c3ccccc3)c2)cn1` is over 200 µM; for `CN1C(=O)COc2c(-c3ccc(F)cc3)cn(-c3ccc(OC(F)(F)F)cc3)c(=O)c21` it is over 200 µM; for `Cn1cc(-c2cn(-c3ccc(OC(F)(F)F)cc3)c(=O)c3cccnc23)cn1` it is under 50 µM.
Then `CC(=O)c1ccc(=O)n(-c2ccc(Cl)cc2)c1`, with over 200 µM; and `O=c1ccc(-c2ccc(F)cc2)cn1Cc1ccccc1`, with under 50 µM.
Turning to `C[C@@H]1CCC(=O)N(c2ccccc2)C1`, the EC50 is over 200 µM.
The figure for `O=c1c2cccnc2c(-c2ccc(F)cc2)cn1-c1ccc(OC(F)(F)F)cc1` is over 200 µM; for `CCOc1ccc(-n2cc(-c3cn[nH]c3)c3c(c2=O)CCCC3)c(C)c1` it is under 50 µM; for `Cn1cc(-c2cn(-c3ccc(OC(F)(F)F)cc3)c(=O)c3nccnc23)cn1` it is under 50 µM.
For the molecule `CC(C)NC(=O)n1cc(-c2ccc(=O)n(-c3ccccc3)c2)cn1`, the EC50 entry was “in the range around 125 µM”.
Then `O=c1c2c(c(-c3ccc(F)cc3)cn1-c1ccc(OC(F)(F)F)cc1)CCCC2`, with over 200 µM; and `COCCOCCOCCOc1cccc(-n2cc(C)ccc2=O)c1`, with over 200 µM.
Then `O=c1ccc(-c2ccc(F)cc2)cn1CCc1ccccc1`, with “in the range around 125 µM”.
Then `O=c1c2nc[nH]c2c(-c2ccc(F)cc2)cn1-c1ccc(OC(F)(F)F)cc1`, with over 200 µM.

For orientation: EC50 means the midpoint of the concentration-response curve.
